{
  "source": "patent US10927139B2",
  "about": "“Chemically cleavable group” (Tagworks Pharmaceuticals B.V., priority 2012, dated 2021)",
  "key": {"[1]": {"assay": "Binding of TCO-protected doxorubicin to beads coated with BSA-tetrazine and doxorubicin release (HPLC)", "protocol": "Tetrazine functionalization of a BSA-coated particle has been described in J. Nucl. Med. 2013, 54, 1989-1995. Briefly, a solution of BSA (bovine serum albumin; 0.7 mg) in PBS was mixed with a 10 mg/mL solution of a bis-pyridyl-tetrazine-NHS derivative in DMF (35 μL, 30 eq. with respect to BSA) and the pH was adjusted to 9.0 with 1 M sodium carbonate buffer. The solution (125 μL total) was incubated at room temperature for 30 min then the unreacted tetrazine was removed from the solution by using a Zeba desalting spin column (7 kDa MW cut-off) pre-washed with PBS. UV measurements confirmed the presence of 12 tetrazine moieties per BSA molecule.\nThe eluate containing BSA-tetrazine in PBS was added to a 350 μL suspension of polystyrene beads (Polybeads, 0.5 μm, Polysciences) in H2O and the resulting suspension was incubated at +4° C. for 1 h on an end-over-end rotating mixer (10 rpm). After incubation, the suspension of beads coated with BSA-tetrazine was centrifuged at 12,000 rpm for 4 min. The supernatant was carefully removed and the pellet was resuspended in 1.5 mL PBS by using a tip sonicator at low power (Sonics VibraCell, 4×5 sec pulses, 40% of power). The centrifuging-resuspension cycle was repeated 2 times, after which the bead pellet was resuspended in 200 μL PBS and reacted with 7 nmol of TCO-protected doxorubicin (TCO-3-Doxorubin, 1 mM in DMSO).\nAfter 5 min incubation at 37° C. in a thermomixer (350 rpm), the beads were removed by centrifugation and the supernatant was analyzed by HPLC on an Agilent Techologies system (1100 series) equipped with a fluorescence detector with λhex=485 nm and λem=590 nm. The sample was loaded on an Eclipse XDB-C18 column (5 μm, 4.6×150 mm^2, Agilent) which was eluted isocratically with 30% (v/v) acetonitrile in H2O containing 0.1% TFA (v/v) at 1 mL/min. HPLC analysis of the supernatant confirmed that ca. 75% of TCO-doxorubicin was bound to the beads.\nThe bead pellet was resuspended in 1.5 mL PBS and centrifuged twice to eliminate unbound TCO-doxorubicin. Subsequently, the beads were resuspended in 400 μL PBS and incubated at 37° C. At various times, aliquots of the supernatant were analyzed by HPLC. The chromatographic profiles (FIG. 2) show release of free doxorubicin (Rt=6.2 min) from the beads with time (>45% after 3 h; complete within 24 h)."}, "[2]": {"assay": "TCO-doxorubicin with uncoated and unmodified beads (comparison)", "settings": "same conditions"}, "[3]": {"assay": "Deprotection of N-TCO protective group (Example 6, 1H-NMR)", "settings": "chloroform with trifluoroacetic acid; 3,6-dimethyl-1,2,4,5-tetrazine (8); 20° C. for 40 min", "protocol": "(N-TCO-6-aminohexyl) phenylcarbamate (5.61 mg; 1.44*10^−5 mol) was dissolved in chloroform (0.6 mL) and trifluoroacetic acid (20 mg; 1.75*10^−4 mol) was added. Subsequently, a solution of 3,6-dimethyl-1,2,4,5-tetrazine (8, 1.90 mg; 1.73*10^−5 mol) in chloroform (0.1 mL) was added. The pink, homogeneous mixture was stirred at 20° C. for 40 min. According to ^1H-NMR, more than 95% was deprotected. The reaction mixture was washed with aqueous potassium carbonate (0.5 mL 0.4 M), dried over sodium sulfate, filtered, and evaporated to dryness. The crude product was purified by preparative RP-HPLC and isolated by lyophilization to yield a white powder (2.31 mg; 68%). ^1H-NMR (DMSO-d6): δ=9.60 (s, 1H), 7.46 (d, 2H), 7.26 (t, 2H), 6.97 (t, 1H), 4.06 (t, 2H), 2.60 (t, 2H), 1.62 (m, 2H), 1.33 (m, 6H) ppm. ^13C-NMR (CDCl3): δ=153.6, 139.2, 128.7, 122.2, 118.1, 73.8, 64.1, 41.5, 33.3, 28.6, 26.1, 25.4 ppm. FT-IR (ATR): v=3343, 2939, 1707, 1542, 1448, 693 cm^−1. LC-MS: m/z=+237.17 [M+H]+(calcd 236.15 for C13H20N2O2)."}, "[4]": {"assay": "Tetrazine-induced doxorubicin release from Axial-TCO-1-Doxorubicin in PBS/MeCN (LCMS)", "settings": "10 equiv. tetrazine; 25% MeCN in PBS; 37° C.; LCMS at 4 h (n = 3)", "protocol": "PBS/MeCN (1 mL, 3/1), preheated at 37° C. and TCO-2-doxorubicin (10 μL of a 2.5 mM solution in DMSO, 1 eq.) were added to a preheated injection vial. Tetrazine (10 μL of a 25 mM solution in DMSO, 10 eq.) was added and the vial was vortexed. After incubation for 1 hour at 37° C., the vial was placed in LC-MS autosampler at 10° C. LC-MS analysis was performed using a 5% to 100% H2O/MeCN gradient over 11 minutes with a C18 reverse-phase column at 35° C. A control sample containing only TCO-2-doxorubicin (1 eq), as well as a sample containing only doxorubicin (1 eq.), was analyzed under the same conditions. All tetrazine containing samples were measured twice and the doxorubicin control sample was run after every three other samples during an overnight program. […] The calculated percentage of release was corrected when it was observed that the TCO-2-doxorubicin was not fully converted to inv-DA adduct(s). This was done by quantification of remaining dox-TCO, but full conversion was almost always observed. Peak areas (used for doxorubin quantification) were determined at λ=470-500 nm where characteristic doxorubicin absorption takes place and peak integration was done by hand.\n(§1) In a similar fashion as Example 3, the release of doxorubicin from TCO-1-doxorubucin as induced by tetrazines 1, 8, 9 in PBS/ACN and in serum was measured."}, "[5]": {"assay": "Tetrazine-induced doxorubicin release from Axial-TCO-1-Doxorubicin in serum", "parameters": "species or system mouse", "settings": "10 equiv. tetrazine; 50% serum; 37° C.; LCMS at 4 h (n = 3)", "protocol": "as §1\nSerum experiments were conducted as follows:\nTCO-1-doxorubucin (6.25×10^−8 mol) was dissolved in DMSO (0.050 mL), and PBS (0.475 mL) was added slowly in aliquots of 0.010 mL, followed by mouse serum (0.475 mL). A portion of this mixture (0.200 mL) was equilibrated at 37° C., and a solution of tetrazine (1.25×10^−7 mol) in DMSO (0.005 mL) was added, and the solution was thoroughly mixed and incubated at 37° C. in the dark for 4 h. Subsequently, cold MeCN (0.200 mL) was added, followed by centrifugation at 13400 rpm for 5 min. The supernatant was used for further analysis by HPLCMS/PDA analysis to determine the release of doxorubicin."}, "[6]": {"assay": "Tetrazine-induced release of bead-bound radioactivity from streptavidin beads loaded with 125I-Rtx-TCO-biotin", "settings": "beads with 21 μg ^125I-Rtx-TCO-biotin/mg; 1.5×10^3 eqs tetrazine; 1 hour at room temperature; gamma counting", "protocol": "The bead suspension containing 21 μg ^125I-Rtx-TCO-biotin/mg beads (1 mL in PBS) was divided in two aliquots and reacted with a large excess of 3,6-dimethyl-1,2,4,5-tetrazine (8, 1.5×10^3 eqs with respect to Rtx) in DMSO (5 μL) or with DMSO alone (control) and incubated for 1 hour at room temperature on a roller bench. […] SDS-PAGE confirmed that the activity in the supernatant was due to the release of ^125I-Rtx from the beads (FIG. 4), thus confirming cleavage of the Rtx-TCO-biotin linker upon reaction with the 3,6-dimethyl-1,2,4,5-tetrazine."}, "streptavidin beads": {"biological_target": "T1, streptavidin beads (Streptomyces avidinii, UniProt P22629)", "T1 construct": "purchased Invitrogen", "T1 sequence (P22629 25-183)": "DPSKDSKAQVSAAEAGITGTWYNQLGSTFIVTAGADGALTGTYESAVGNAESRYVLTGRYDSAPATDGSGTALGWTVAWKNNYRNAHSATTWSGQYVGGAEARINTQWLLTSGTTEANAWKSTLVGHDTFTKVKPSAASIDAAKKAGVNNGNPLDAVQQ", "assay": "Capture of 125I-Rtx-TCO-biotin with streptavidin beads (gamma counting)", "format": "binding", "settings": "1 hour incubation", "protocol": "Rituximab (Rtx, 100 μg in 200 μL PBS, Roche) was radiolabeled with ^125I (Perkin Elmer) in a Pierce iodination tube (5 min incubation at room temperature) followed by size exclusion (SEC) purification (2 times, 0.5 mL Zeba desalting spin cartridge, 40 kDa MWCO, Pierce). Subsequently, non-radioactive Rtx was added to the solution (making 1 mg total Rtx), the pH was adjusted to 9 with 1 M sodium carbonate buffer and TCO-2-Biotin (3 eq., 5 mg/mL in DMSO) was added. The reaction mixture (200 μL) was incubated for 2 hours at 37° C. (350 rpm), purified once by SEC cartridge and then analyzed by SEC HPLC on an Agilent 1200 system equipped with a Gaby radioactive detector and UV detector and connected to a BioSep-SEC-S-3000 column (300×7.8 mm, 5 μm particles, Phenomenex) which was eluted at 1 mL/min with 0.1 M phosphate 0.15 M NaCl pH 6.8.\nSubsequently, various amounts of ^125I-Rtx-TCO-biotin were combined with 1 mg streptavidin beads (Dynabeads MyOne Streptavidin Cl, Invitrogen) in 200 μL PBS and incubated for 1 hour at room temperature on a roller bench, to avoid bead settling. After incubation, the supernatants were removed and the beads were washed extensively with PBS."}},
  "data": [
    {"compound": "COc1cccc2c1C(=O)c1c(O)c3c(c(O)c1C2=O)C[C@@](O)(C(=O)CO)C[C@@H]3O[C@H]1CC(NC(=O)OCc2ccc(OC(=O)N[C@@H]3CC/C=C/CC[C@@H]3N)cc2)[C@H](O)C(C)O1", "note": "(stereo partly drawn) [TCO-3-Doxorubicin]", "values": [
      {"measurement": "TCO-doxorubicin bound to the beads", "setting": "[1]; BSA-tetrazine coated beads, 5 min incubation at 37° C., HPLC of supernatant", "value": "ca. 75%"},
      {"measurement": "time to complete release of free doxorubicin from the beads", "setting": "[1]; PBS, 37° C.", "value": "≤ 24", "unit": "h"},
      {"measurement": "release of free doxorubicin from the beads", "setting": "[1]; PBS, 37° C., after 3 h", "value": "> 45", "unit": "%"},
      {"measurement": "non-specific proDox adsorption on the bead surface", "setting": "[2]", "value": "> 95", "unit": "%"}
    ]},
    {"compound": "O=C(Nc1ccccc1)OCCCCCCNC(=O)OC1/C=C/CCCCC1", "note": "(stereo not drawn) [(N-TCO-6-aminohexyl) phenylcarbamate]", "values": [
      {"measurement": "deprotected according to 1H-NMR", "setting": "[3]", "value": "more than 95%"}
    ]},
    {"compound": "Cc1nnc(C)nn1", "note": "[tetrazine 8, 3,6-dimethyl-1,2,4,5-tetrazine]", "values": [
      {"measurement": "Doxorubicin release (%) from Axial-TCO-1-Doxorubicin, PBS/MeCN (3/1)", "setting": "[4]", "value": "79 ± 3", "unit": "%"},
      {"measurement": "Doxorubicin release (%) from Axial-TCO-1-Doxorubicin, Serum", "setting": "[5]", "value": "75 ± 4", "unit": "%"},
      {"measurement": "release of the bead-bound radioactivity", "setting": "[6]", "value": 37, "unit": "%"}
    ]},
    {"compound": "^125I-Rtx: Rituximab (Rtx, Roche) radiolabeled with 125I", "values": [
      {"measurement": "radioactivity bound to streptavidin beads", "setting": "streptavidin beads", "value": "almost no radioactivity was bound"}
    ]}
  ]
}
